Experimental data: a melting point compilation (Tetko et al.; mined from patent text by program, amines drawn as free bases though some values may be those of a salt)

First: C[C@@H]1Oc2ccccc2C(=O)[C@H]1n1ccnc1 (relative stereo)
Second: c1ccc2c(c1)COc1ccccc1-2
The melting point of the first is higher: 144 to 146 °C for the first, 97 °C for the second.

Compared with `Cc1cc2c(c(C3=NNC(=O)CC3C)c1)OCCN2` (stereo not drawn), `CCOC(=O)N1CC=C(c2cc(F)c(Br)cc2F)CC1` is lower in melting point: 160 to 162 °C for the first, 40 to 44 °C for the second.

Compared with `CC(C)C(=O)c1cccc([N+](=O)[O-])c1`, `CC(C)n1c(=O)oc2cc([N+](=O)[O-])cc(F)c21` is higher in melting point: 33 to 35 °C for the first, 122 to 123 °C for the second.

First: Cc1ccc2[nH]c(SCC(F)(F)F)nc2c1
Second: CC1(C(F)(F)F)OC(=O)Nc2ccc(Cl)cc21 (stereo not drawn)
The melting point of the first is lower: 159 to 161 °C for the first, 216 °C for the second.

Compared with `CC(CC=O)P(=O)(O)CCCCc1ccccc1` (stereo not drawn), `CC(C)NCCCC(O)c1ccccc1-c1ccccc1` (stereo not drawn) is lower in melting point: 138 °C for the first, 78 to 80 °C for the second.

First: O=C(O)Cc1cc(C(=O)c2ccc(I)c([N+](=O)[O-])c2)sc1-c1ccccc1
Second: Cc1[nH]c(C(=O)NCC(=O)O)c(C)c1-c1nc2ccc(C(=O)c3ccccc3)cc2[nH]1
The melting point of the first is lower: 100 to 103 °C for the first, 274 to 276 °C for the second.

Compared with `Nc1ccccc1Nc1ccc(Nc2nccs2)cc1`, `CS(=O)(=O)Nc1ccc(C=C2c3ccccc3CCc3ccccc32)cc1` is higher in melting point: 184 to 186 °C for the first, 211 °C for the second.

Compared with `O=c1[nH]c2ccccc2n1CCCN1CCC(c2noc3cccc(F)c23)CC1`, `CC(C)Cc1nn(C)c(=O)c2cc(Cc3cccc4ccccc34)oc12` is lower in melting point: 174 to 175 °C for the first, 73 to 75 °C for the second.

First: COc1cc(N(C)C)c(Cl)cc1C(=O)NCC1CN(CCCOc2ccc(Cl)cc2)CCO1 (stereo not drawn)
Second: CCCCOc1ccc(NC(=O)c2cnc(C(=O)NCC(=O)OCC)c(Cl)c2)cc1
The melting point of the first is lower: 128 to 130 °C for the first, 177 to 179 °C for the second.

Compared with `COc1cc(C(=O)O)c2oc(-c3ccc(OC)c(F)c3)cc2c1`, `COc1cc(C=Cc2ccccc2)cc(OC)c1` is lower in melting point: 254 to 256 °C for the first, 56.4 °C for the second.

First: CCOC(=O)CC(C)N=c1sc2ccc(Cl)cc2s1 (stereo not drawn)
Second: CCOC(=O)COc1cc2cc(C3CCCCC3)sc2c(Cl)c1Cl
The melting point of the first is lower: 60 to 61 °C for the first, 73 to 75 °C for the second.

First: O=C(O)C1CCc2c(c3ccccc3n2C(=O)c2cccc(Cl)c2)C1 (stereo not drawn)
Second: NC(=O)c1cccc2nc3n(c12)CCCN3c1ccc(Cl)cc1Cl
The melting point of the first is lower: 179 to 181 °C for the first, 198 to 200 °C for the second.

Compared with `O=C(NC1CCC(OCc2ccccc2)CC1)NC12CC3CC(CC(C3)C1)C2` (stereo not drawn), `CC(=O)SCC1CCCCCCCSC[C@@H](C(=O)OCc2ccccc2)NC1=O` (stereo partly drawn) is higher in melting point: 181 °C for the first, 192 to 193 °C for the second.

Compared with `COP(=O)(OC)OCN1C(=O)NC(c2ccccc2)(c2ccccc2)C1=O`, `Cc1c(C2=C(c3cn(C)c4ccccc34)C(=O)NC2=O)c2ccccc2n1C` is higher in melting point: 123 to 124 °C for the first, greater than 290 °C for the second.

First: CC(C)(C)Oc1ccc(S(=O)(=O)N2c3ccccc3C[C@H]2C(=O)NCCOc2ccc(CC(=O)O)cc2)cc1
Second: O=C(Nc1ccc(CN2C(=O)[C@H]3CCC[C@H]3N(C(=O)CCl)c3ccccc32)cc1)Oc1ccccc1 (relative stereo)
The melting point of the first is lower: 68 to 71 °C for the first, 207 to 210 °C for the second.

First: N#Cc1ccc(NCc2cc3c(cc2O)CCCO3)cc1
Second: CC1(C)C=C(c2cc(C#N)ccc2O)c2cc(C#N)ccc2O1
The melting point of the first is lower: 162 to 164 °C for the first, 213 to 215 °C for the second.

First: CNC(=O)c1ccccc1Nc1nc(Nc2ccc3c(c2)OCCN(C)C3=O)ncc1Cl
Second: COc1cc2c(cc1Nc1ncc(Cl)c(Nc3ccc(N4CCOCC4)cc3OC)n1)CCN(C[C@H](O)C(F)(F)F)CC2
The melting point of the first is higher: 288 to 289 °C for the first, 95 to 102 °C for the second.

Going from `COc1ncccc1-c1cc(F)c(F)c(OC2SCC(O)C(O)C2O)c1` (stereo not drawn) to `COc1ncc(Oc2ccc(Cl)cc2)c2cc(C(N)=O)sc12`, the melting point rises from 127 °C to greater than 250 °C.

First: CONS(=O)(=O)c1ccc(Cl)c([N+](=O)[O-])c1
Second: Cn1cc(CS(C)(=O)=O)c(=O)c2ccccc21
The melting point of the first is lower: 69.5 to 71 °C for the first, 200 to 201 °C for the second.

First: Cc1cccc2nc3n(c(=O)c12)-c1ccc(F)cc1C3=O
Second: Cn1c(-c2ccc(Cl)cc2)cc2ncccc2c1=O
The melting point of the first is higher: 300 to 301 °C for the first, 139 to 140 °C for the second.

First: O=C(CCC1CCC(=O)N1)Nc1ccncc1 (stereo not drawn)
Second: CCCCCCCC(=O)Nc1cccc(-c2cc(=O)cc(C(=O)O)o2)c1
The melting point of the first is lower: 187 to 188 °C for the first, 242 to 247 °C for the second.

First: COC[C@]12CCC(=O)C=C1CC[C@@H]1[C@@H]2CC[C@]2(C)[C@@H](C(=O)CO)CC[C@@H]12
Second: CC12CCC3c4ccc(C(=O)O)cc4CCC3C1CCC2C(=O)CCc1ccc(O)cc1 (stereo not drawn)
The melting point of the first is lower: 148 to 149 °C for the first, 197 °C for the second.

First: COC(=O)CNC(=S)n1nc(-c2ccc(Cl)cc2)nc1N
Second: Cn1c(C(F)(F)F)cc(C#N)c1-c1ccc(Cl)cc1
The melting point of the first is higher: 142 to 145 °C for the first, 130 °C for the second.

First: O=C(O)c1c(-c2ccccc2)c2cc(OCc3ccccc3)ccc2n1Cc1cc2c(cc1Cl)OCO2
Second: CCNC(=O)CN1C(=O)C(NC(=O)OCc2ccccc2)N=C(c2ccccc2)c2ccccc21 (stereo not drawn)
The melting point of the first is higher: 213 to 214 °C for the first, 149 °C for the second.

First: CC(C)(C)NCC(O)COc1ccc(C=O)cc1 (stereo not drawn)
Second: CC(C)(C)[Si](C)(C)Oc1ccc(NC(=O)CCl)cc1
The melting point of the first is higher: 123 to 126 °C for the first, 107 to 108 °C for the second.

First: CON=C(C)CN1C(=O)c2ccccc2C1=O
Second: CCOC(=O)c1nccn1C1C(=O)c2ccccc2N1C(C)=O (stereo not drawn)
The melting point of the first is lower: 114 to 131 °C for the first, 210 °C for the second.

First: Cc1cc(N2CCN(Cc3ccc(C(F)(F)F)cc3)C2=O)sc1C(=O)NCc1cccnc1
Second: Cc1nc(N2CCN(CC3CC3)C2=O)sc1C(=O)NCc1ncco1
The melting point of the first is lower: 102 to 104 °C for the first, 172 to 174 °C for the second.

First: COC(C)c1c(C(C)C)nc(C(C)C)c(CO)c1-c1ccc(F)cc1 (stereo not drawn)
Second: CC(C)c1cccc(C(C)C)c1NC(=O)CNC(c1ccccc1)c1cccc(CO)c1 (stereo not drawn)
The melting point of the first is higher: 151 to 153 °C for the first, 57 to 62 °C for the second.

First: CCOC(=O)c1c[nH]c2nc(N3CCN(C(C)=O)CC3)c(F)cc2c1=O
Second: CCOC(=O)N1CCc2nc(-c3ccncn3)cc(=O)n2CC1
The melting point of the first is higher: 290 to 295 °C for the first, 144 to 146 °C for the second.

Compared with `CN=C(NC#N)Oc1ccccc1`, `CCNC(=O)c1cnn(-c2ccccc2)c1Br` is higher in melting point: 132 to 133 °C for the first, 158 to 160 °C for the second.

Compared with `N#Cc1ccc(-c2ccc(O)c(C(=O)O)c2)cc1`, `CC(C#N)c1ccc(-c2nc3ccccc3o2)cc1` (stereo not drawn) is lower in melting point: 227 °C for the first, 116 to 117 °C for the second.

Compared with `CNc1ccc(-c2nc(C)c(-c3cccnc3)[nH]2)c(OC)c1`, `CC(C)(C)c1ccc2c(C=O)c3ccccc3c(Cl)c2c1` is higher in melting point: 54 to 56 °C for the first, 143 to 147 °C for the second.

First: COc1c(Cl)ccc(-c2nc(C=O)c(Cl)c(N)c2F)c1F
Second: NNc1ccc(Cl)c(Cl)c1Cl
The melting point of the first is higher: 192 to 196 °C for the first, 138 to 140 °C for the second.

First: C=CCOC(=O)c1c(C)c(OC)cc(O)c1C=O
Second: CCOC(=O)CNC(=O)c1cc2c(s1)-n1c(C)nnc1CN=C2c1ccccc1Cl
The melting point of the first is lower: 73 to 74 °C for the first, 251 to 252 °C for the second.

Compared with `Cc1cc2c(c(C(C)(C)C)c1)OC(=O)C2c1ccc2c(c1)c1ccccc1n2C` (stereo not drawn), `CCCOc1ccccc1C=C1Oc2ccc(C(=O)O)cc2C1=O` is higher in melting point: 84 to 90 °C for the first, 228 to 229 °C for the second.

First: CCCCc1oc2ccccc2c1C(=O)NCc1ccc2c(-c3ccc(C)cc3)c(OCc3nnn[nH]3)ccc2c1
Second: Fc1ccc(-c2ccc3nnn(Cc4ccc5ncccc5c4)c3n2)cc1
The melting point of the first is higher: 162 to 166 °C for the first, 153 to 156 °C for the second.

First: COc1cc2c3c(n(C)c(=O)c2cc1OC)-c1cc2c(cc1C3=CCCCCl)OCO2
Second: COc1nc(NCCCN2CCOCC2)nc(OC)c1NC(=O)c1coc(Oc2cccc(C(C)(C)C)c2)n1
The melting point of the first is higher: 196 to 201 °C for the first, 85 °C for the second.

First: CC(c1ccc(N(C)C)cc1)c1ccc(N(C)C)cc1
Second: CC(C)c1ccc(C(=O)NNC(=O)c2ccc(C(=O)O)cc2)cc1
The melting point of the first is lower: 68 °C for the first, 235 to 237 °C for the second.

First: CS(=O)(=O)Nc1cc2occc(=O)c2cc1Oc1ccc(F)cc1F
Second: CCCc1oc2ccc([N+](=O)[O-])cc2c1C(=O)c1ccc(O)cc1
The melting point of the first is higher: 182 to 183 °C for the first, 119 °C for the second.

First: O=S(=O)(c1ccc(O)cc1)N(CC(F)(F)F)c1ccc(O)cc1
Second: Cc1ccc(S(=O)(=O)OC[C@H](CNC(=O)c2ccc(Cl)s2)OC(=O)Nc2ccc(N3CCOCC3=O)cc2)cc1
The melting point of the first is higher: 172 to 173 °C for the first, 142 °C for the second.

First: Brc1ccc(Br)c2nc(-c3ccccc3)c(-c3ccccc3)nc12
Second: N#CCc1c(Cl)nc(-c2ccccc2)n1Cc1ccccc1
The melting point of the first is higher: 221 to 223 °C for the first, 121 to 122 °C for the second.

First: CCCCc1nc2c(N)nc3ccccc3c2n1CCNC(=O)CCCCC1SCC2NC(=N)NC21 (stereo not drawn)
Second: CC(C)Cn1cnc2c(N)nc3ccc(CCO)cc3c21
The melting point of the first is lower: 95 to 96 °C for the first, 214 to 216 °C for the second.

Compared with `CCOC(=O)/C=C/c1cnc(Cl)nc1`, `CCOCCNC(=O)n1sc(OCC)nc1=O` is lower in melting point: 125 to 127 °C for the first, less than 50 °C for the second.

First: CSc1nc2ccc(Br)cc2o1
Second: CSc1cnc(Cl)c(Cl)c1
The melting point of the first is higher: 95 to 96 °C for the first, 66 to 67 °C for the second.

First: CSCc1c[nH]c(=O)[nH]c1=O
Second: O=C1NC(=O)C2(CCOC2)N1 (stereo not drawn)
The melting point of the first is higher: 239 to 241 °C for the first, 202 to 204 °C for the second.

First: CSc1nc(O)nn1C
Second: CCNc1nc(Br)cn2c(Br)cnc12
The melting point of the first is lower: 128 to 130 °C for the first, 131 °C for the second.

Compared with `CC(C)c1nn(-c2ccc(C(F)(F)F)cn2)cc1CCCOc1cc(CCC(=O)O)n(C(C)C)n1`, `CCOc1nn(-c2ccc(C(F)(F)F)cn2)cc1CCCOc1cc(CCC(=O)O)cc(OC)c1` is lower in melting point: 130 to 131 °C for the first, 99 to 100 °C for the second.

Compared with `O=c1oc(OCCBr)c(Cl)c2ccc(NC(=S)Nc3ccccc3)cc12`, `Cc1c(N2CC3CN(Cc4ccccc4)CC3C2)nn2c(-c3ccnc(NC(=O)OC(C)(C)C)c3)c(-c3ccc(F)cc3)nc2c1C` (stereo not drawn) is higher in melting point: 157 to 158 °C for the first, 214 to 216 °C for the second.

First: CCNC(=O)C=CC(C)=CC=C(C)c1ccc2c(c1)C(C)(C)CCC2(C)C
Second: O=C(O)c1ccc(Br)c(S)c1
The melting point of the first is lower: 150 to 159 °C for the first, 315 to 317 °C for the second.

First: CC(C(=O)n1c(=O)oc2ccccc21)C1(O)CCCCC1 (stereo not drawn)
Second: CC(C)(NC(=O)CCn1cncc1C=O)c1ccc(Cl)cc1
The melting point of the first is lower: 58 to 59 °C for the first, 127 to 129 °C for the second.

First: COc1ccc(C2=NOC(CN=C=S)C2)cc1 (stereo not drawn)
Second: CCc1c(C(=O)O)c(CC(=O)O)n(C)c1C(=O)c1ccc(Cl)cc1
The melting point of the first is lower: 92 to 94 °C for the first, 211 to 212 °C for the second.

With `CN(Cc1ccc(NC(=O)C2=Cc3cc(-c4ccc(Cl)cc4)ccc3S(=O)(=O)CC2)cc1)C1CCC(=O)CC1` the melting point was 197 to 200 °C.
